Laboratory results taken from ChEMBL document CHEMBL4689842, “EUbOPEN Chemogenomics Library wave 1” (2021).

Experiments:
Format in all cases: toxicity, cell-based
HEK-293T = test: Incucyte cell viability with HEK293T; settings: human, 10 µM, compound concentration 10 uM
U2OS = test: Incucyte cell viability with U2OS; settings: human, 10 µM, compound concentration 10 uM
Fibroblast = test: Incucyte cell viability with human fibroblast; settings: 10 µM, compound concentration 10 uM
[1] = 0 h, replicate number 1, timepoint 0 hours
[2] = 0 h, replicate number 2, timepoint 0 hours
[3] = 6 h, replicate number 1, timepoint 6 hours
[4] = 12 h, replicate number 1, timepoint 12 hours
[5] = 18 h, replicate number 1, timepoint 18 hours
[6] = 24 h, replicate number 1, timepoint 24 hours
[7] = 6 h, replicate number 2, timepoint 6 hours
[8] = 24 h, replicate number 2, timepoint 24 hours
[9] = 18 h, replicate number 2, timepoint 18 hours
[10] = 12 h, replicate number 2, timepoint 12 hours
Also: filed as whole numbers so only -1 and 0 and 1 occur.

SMILES | Growth Rate (HEK-293T; [1]) | Growth Rate (HEK-293T; [3]) | Growth Rate (HEK-293T; [4]) | Growth Rate (HEK-293T; [5]) | Growth Rate (HEK-293T; [6]) | Growth Rate (U2OS; [1]) | Growth Rate (U2OS; [4]) | Growth Rate (U2OS; [5]) | Growth Rate (U2OS; [6]) | Growth Rate (Fibroblast; [1]) | Growth Rate (Fibroblast; [3]) | Growth Rate (Fibroblast; [4]) | Growth Rate (Fibroblast; [5]) | Growth Rate (Fibroblast; [6]) | Growth Rate (Fibroblast; [8]) | Growth Rate (HEK-293T; [8]) | Growth Rate (U2OS; [3]) | Growth Rate (Fibroblast; [7]) | Growth Rate (Fibroblast; [10]) | Growth Rate (Fibroblast; [9]) | also measured
Cc1cn2cc(CC(=O)N3CCC4(CC3)CN(Cc3ccc(-n5nccn5)cc3Cl)C4)nc2s1 | 1 | 0 | 0 | 0 | 0 | 0 | 1 | 1 | 1 | 1 | 0 | 0 | 0 | 1 | 0 |  |  |  |  |  | Growth Rate (HEK-293T; [2]): 0; Growth Rate (U2OS; [7]): 0
OCCn1cc(-c2ccc3c(c2)CCC3=NO)c(-c2ccncc2)n1 | 0 |  | 1 | 0 | 0 | 1 | 1 | 1 | 1 | 0 |  | 1 | 1 | 1 |  | 1 | 1 | 1 | 0 | 0 | Growth Rate (HEK-293T; [9]): 1; Growth Rate (U2OS; [9]): 0
CCCCC#Cc1nc(NC)c2ncn([C@@H]3O[C@H](CO)[C@@H](O)[C@H]3O)c2n1 | 0 | 0 | 0 | 0 | 0 | 0 | 1 | 1 | 1 | 0 | 1 | 1 | 1 | 1 |  | 1 | 0 |  |  |  | Growth Rate (HEK-293T; [7]): 1; Growth Rate (HEK-293T; [10]): 1; Growth Rate (HEK-293T; [9]): 1; Growth Rate (U2OS; [10]): 0
Cc1cc2c(cc1C1(c3ccc(C(=O)O)cn3)CC1)C(C)(C)CCC2(C)C | 0 | 1 | 1 | 1 | 0 | 0 | 1 | 1 | 1 | 1 | 0 | 0 | 1 | 0 | 1 |  |  | 1 |  |  | Growth Rate (HEK-293T; [10]): 0; Growth Rate (HEK-293T; [9]): 0; Growth Rate (Fibroblast; [2]): 0
COc1cc(C#N)ccc1S(=O)(=O)Nc1ccc2c(c1)cc(C)c(=O)n2C | 1 | 0 | 0 | 0 | 0 | 0 | 0 | 0 | 0 |  | 1 | 0 | 0 | 1 | 0 |  | 0 | 0 |  |  | Growth Rate (HEK-293T; [9]): 1; Growth Rate (U2OS; [7]): 1; Growth Rate (U2OS; [10]): 1; Growth Rate (U2OS; [9]): 1; Growth Rate (U2OS; [8]): 1; Growth Rate (Fibroblast; [2]): 0
CCCOc1ccn2c(C(C)=O)cc(-c3cccc(OC)c3)c2c1 | 0 |  |  |  |  | 0 | 1 | 1 | 1 | 0 |  |  |  | 1 |  | 1 | 0 | 0 | 1 | 0 | 
C/C(=C/C=C/C(C)=C/C(=O)O)c1cc(C(C)(C)C)cc(C(C)(C)C)c1OCC(F)F | 0 | 0 | 0 | 0 | 0 | 0 | 1 | 1 | 1 | 0 | 0 | 0 | 0 | 0 |  |  |  |  |  | 1 | 
CCOP(=O)(OCC)C(=Cc1cc(C(C)(C)C)c(O)c(C(C)(C)C)c1)P(=O)(OCC)OCC | 0 |  | 0 | 0 | 0 | 1 | 0 | 0 | 0 |  | 0 | 0 | 0 | 0 |  |  |  |  |  | 1 | Growth Rate (HEK-293T; [7]): 0; Growth Rate (U2OS; [2]): 0; Growth Rate (U2OS; [7]): 0
CCc1cc(Nc2nccc(-c3c(-c4ccc(OC)c(C(=O)Nc5c(F)cccc5F)c4)nc4ccccn34)n2)c(OC)cc1N1CCC(N2CCN(S(C)(=O)=O)CC2)CC1 | 1 | 0 | 0 | 0 | 0 |  | 1 | 1 | 1 | 1 | 1 | 1 | 1 | 1 | 0 | 1 | 1 | 0 | 0 | 0 | Growth Rate (HEK-293T; [2]): 0; Growth Rate (HEK-293T; [10]): 1; Growth Rate (U2OS; [9]): 0
CCN(Cc1ccc(Cl)cc1)c1ncc(C(=O)NCCCN2CCCC2=O)c(NC2CCCC2)n1 | 0 |  |  |  |  |  | 1 | 1 | 1 |  | 1 | 1 | 1 | 1 |  |  | 1 | 0 | 0 |  | Growth Rate (U2OS; [2]): 0; Growth Rate (Fibroblast; [2]): 0
CCCCN(Cc1ccccc1)C(=O)c1ccc(S(=O)(=O)Nc2ccccc2)cc1 | 0 | 1 |  |  |  |  | 1 | 1 | 1 | 0 |  | 1 | 1 | 0 | 1 | 1 | 1 | 0 | 0 | 0 | Growth Rate (HEK-293T; [7]): 0; Growth Rate (HEK-293T; [10]): 1; Growth Rate (U2OS; [9]): 0; Growth Rate (U2OS; [8]): 0; Growth Rate (Fibroblast; [2]): 1
